Columns and labels:
HDAC-2 = HDAC-2 (Homo sapiens, UniProt Q92769); experiment: Enzymatic HDAC inhibition assay (fluorescence), HDAC-2; type: biochemical; conditions: compound at 10 µM
Protocol: (§1) Enzymatic assays to evaluate HDAC inhibition were performed, and the design involved three steps: (a) Preliminary screening to identify the most promising compounds; (b) Evaluation by a panel of HDAC isoforms to investigate selectivity; and (c) Determination of IC50 values. Firstly, compounds (4–7; 15–26) were evaluated at 10 µM against HDAC-1 and HDAC-2 (Table 2).
(§2) The enzymatic assay to evaluate HDAC inhibitory effects for all final compounds against the distinct isoforms was carried out in accordance with the previously described procedures (Lopes et al., 2021). All compounds were initially screened at 10 µM against HDAC-1 and HDAC-2. […] All the compounds were dissolved in DMSO. A serial dilution of the compounds was performed in 100% DMSO with the highest concentration at 1 mM. Each intermediate compound dilution (in 100% DMSO) was diluted 10x in assay buffer to form a 10% DMSO intermediate dilution in HDAC assay buffer. 5 µL of this dilution was added to a 50 µL reaction to bring the final concentration of DMSO to 1% in all the reactions. Three independent experiments were carried out in triplicate for all experiments. The fluorescence intensity was measured at an excitation of 360 nm and emission of 460 nm using a Tecan Infinite M1000 microplate reader, and the percentage of activity was calculated using the formula: % activity = (F − Fb)/(Ft − Fb), where F = the intensity of fluorescence in the presence of the compound. In the absence of the test compound, the fluorescent intensity (Ft) in each dataset was defined as 100% activity, while in the absence of HDAC, the fluorescent intensity (Fb) in each dataset was set to 0% activity.

HDAC-1 = HDAC-1 (Homo sapiens, UniProt Q13547); experiment: Enzymatic HDAC inhibition assay (fluorescence), HDAC-1; type: biochemical; conditions: compound at 10 µM
Protocol: as §1, §2

HDAC isoforms = tested on: HDAC isoforms; design: method as in PMID 24023672; conditions: RVT 100 µM, nuclear extract of HeLa cells; cited from earlier work
SIRT1 = tested on: SIRT1; design: method as in PMID 30526767; conditions: dose-dependent experiments; cited from earlier work

HDAC-2, sequence (Q92769 whole entry, canonical isoform): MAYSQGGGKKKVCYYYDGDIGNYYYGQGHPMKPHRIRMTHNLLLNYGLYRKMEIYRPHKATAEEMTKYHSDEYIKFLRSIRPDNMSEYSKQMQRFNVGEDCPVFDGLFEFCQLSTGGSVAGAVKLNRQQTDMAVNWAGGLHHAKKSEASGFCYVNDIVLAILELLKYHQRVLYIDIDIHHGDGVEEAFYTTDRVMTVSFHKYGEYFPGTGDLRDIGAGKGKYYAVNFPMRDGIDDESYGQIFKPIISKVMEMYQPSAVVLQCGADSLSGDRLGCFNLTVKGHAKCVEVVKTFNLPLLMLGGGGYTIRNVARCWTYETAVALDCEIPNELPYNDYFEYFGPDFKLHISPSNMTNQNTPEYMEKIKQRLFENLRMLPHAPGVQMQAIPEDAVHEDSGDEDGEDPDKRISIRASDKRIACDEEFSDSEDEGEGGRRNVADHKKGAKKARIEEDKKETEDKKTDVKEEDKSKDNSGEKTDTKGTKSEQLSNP
HDAC-1, sequence (Q13547 whole entry): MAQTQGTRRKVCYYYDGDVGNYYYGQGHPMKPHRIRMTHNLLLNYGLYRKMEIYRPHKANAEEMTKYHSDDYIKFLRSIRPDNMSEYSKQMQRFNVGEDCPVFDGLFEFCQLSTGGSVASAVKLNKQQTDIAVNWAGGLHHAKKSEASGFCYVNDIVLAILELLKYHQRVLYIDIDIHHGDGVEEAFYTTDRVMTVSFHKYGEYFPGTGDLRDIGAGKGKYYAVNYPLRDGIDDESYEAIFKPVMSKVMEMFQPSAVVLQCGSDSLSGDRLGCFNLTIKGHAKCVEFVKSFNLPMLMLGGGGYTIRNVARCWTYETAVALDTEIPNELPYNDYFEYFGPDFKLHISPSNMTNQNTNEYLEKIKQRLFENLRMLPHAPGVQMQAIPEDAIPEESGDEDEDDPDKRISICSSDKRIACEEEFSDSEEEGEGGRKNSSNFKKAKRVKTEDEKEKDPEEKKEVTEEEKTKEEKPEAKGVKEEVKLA

| inhibition at 10 µM (HDAC-2) | inhibition at 10 µM (HDAC-1) | SMILES | other results |
| --- | --- | --- | --- |
| 28 ± 1% | 45 ± 1.2% | Nc1ccc(/C=C/c2ccc(C(=O)Nc3ccccc3N)cc2)cc1 [Compound (4)] |  |
| 85 ± 1.1% | 87 ± 1.1% | Nc1ccccc1NC(=O)c1ccc(COc2ccccc2)cc1 [Compound (20)] |  |
| 93 ± 1.2% | 96 ± 1.3% | Nc1ccccc1NC(=O)c1ccc(CNc2ccccc2)cc1 [Compound (21)] |  |
| 92 ± 0.7% | 96 ± 1.2% | Nc1ccccc1NC(=O)c1ccc(COc2ccc(O)cc2)cc1 [Compound (22)] |  |
| 52 ± 0.8% | 72 ± 1.1% | Nc1ccc(OCc2ccc(C(=O)Nc3ccccc3N)cc2)cc1 [Compound (23)] |  |
| 81 ± 1.1% | 86 ± 1% | NC(=O)c1ccccc1OCc1ccc(C(=O)Nc2ccccc2N)cc1 [Compound (24)] | melting point: 162 to 163.7 °C |
| 21 ± 0.8% | 14 ± 0.5% | Nc1ccccc1NC(=O)c1ccc(COc2ccc(N3C(=O)c4ccccc4C3=O)cc2)cc1 [Compound (25)] |  |
| 6 ± 0.6% | 1 ± 0.5% | Nc1ccccc1NC(=O)c1ccc(COc2ccc(N3C(=O)c4cccc([N+](=O)[O-])c4C3=O)cc2)cc1 [Compound (26)] |  |

Continued, compound first:

| SMILES | inhibition at 10 µM (HDAC-2) | inhibition at 10 µM (HDAC-1) | other results |
| --- | --- | --- | --- |
| O=C(O)c1ccc(/C=C/c2ccccc2)cc1 [(6)] | 0% | 9 ± 1% |  |
| Nc1ccccc1NC(=O)c1ccc(/C=C/c2ccccc2)cc1 [Compound (7)] | 32 ± 0.7% | 42 ± 0.7% | melting point: 177 to 179 °C |
| O=C(O)c1ccc(COc2ccccc2)cc1 [Compound (15)] | 11% | 16 ± 0.6% | HDAC-2 inhibition (HDAC-2; 10 µM): 10 ± 0.5% |
| O=C(O)c1ccc(COc2ccc(O)cc2)cc1 [Compound (17)] | 11 ± 0.5% | 12 ± 0.7% |  |
| NC(=O)c1ccccc1OCc1ccc(C(=O)O)cc1 [Compound (19)] | 8 ± 0.6% | 13 ± 0.9% | melting point: 196.5 to 198.6 °C |
| Oc1ccc(/C=C/c2cc(O)cc(O)c2)cc1 [Resveratrol (RVT), trans-3,5,4′-trihydroxystilbene] |  |  | inhibition of HDAC-1 and HDAC-10 (HDAC isoforms): 40%; inhibition of HDAC-4 and HDAC-9 (HDAC isoforms): 50%; deacetylation rate of SIRT1 (SIRT1): increased |

Source: publication PMC9611521, “Optimization of Resveratrol Used as a Scaffold to Design Histone Deacetylase (HDAC-1 and HDAC-2) Inhibitors” (Pharmaceuticals, 2022)
